Where two headings read alike, the source gives them in different places.
Assays:
[1] = tested on: HCT116 cells; assay: Anchorage-independent cell growth assay in soft agar; assay type: cell-based, human; conditions: 7 days; for IC50: Homo sapiens, HCT-116, 168 h, HCT116, 0.3% agar
Description: FIG. 3: Anchorage-independent growth assay in soft agar. 5 10^3 cells were seeded in 24-well plates in 0.3% agar-containing medium supplemented with the designated amount of compounds. After 7 days of incubation at 37° C., pictures of each well were taken and analyzed using the ImageJ image analysis software. In particular, clone size and number were calculated. The data were analyzed using GraphPad Prism, and IC50 was calculated. […] (A) Typical dose-response curves obtained for clone size and number. (B) Bar graph displaying the IC50s calculated for each compound.
In order to evaluate the effect of one compound on the capacity of tumour cells to grow without anchorage, HCT116 cells were seeded in soft agar. In contrast to microplate assays which average the drug's effects over an entire cell population, clonogenic assays offer the possibility of distinguishing cytotoxic agents (i.e., decreased colony number) from cytostatic agents (i.e., decreased colony size without decreased colony number; Murphy M. J. et al., 1996). Briefly, 5 10^3 HCT116 cells were resuspended in 300 μl of complete medium containing 0.3% soft-agar (Difco) and different concentrations of compound (8 concentrations ranging from 0 to 30 μM). Cells were then poured on a solidified layer of medium containing 0.5% of soft agar plus the compound at the same concentration as in the upper layer. Cells were incubated for 7 days at 37° C. before pictures of each well were taken using a phase contrast microscope (Nikon) and a digital camera (Nikon Coolpix 990). Pictures were subsequently analyzed using free image analysis software from the NIH (ImageJ) allowing determination of clone size and number.
Data were analyzed using the GraphPad Prism software, and IC50 (dose leading to a 50% decrease of clone size or number) was calculated from dose-response curves.

[2] = tested on: MDA-MB-231; assay: Cell viability assay (MTT), MDA-MB-231; assay type: cell-based, human; conditions: Homo sapiens, 1% DMSO
Method in brief: (§1)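 Cells seeded 24 h before treatment with 0–200 μM compound (11 concentrations, 1% DMSO final) in 10% or 0.5% FBS medium; exposure 16 h, 3 or 6 days, fed every 3 days in 6-day runs. MTT 0.5 mg/ml read at 550 nm; IC50 from dose-response curves, mean±SEM.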

[3] = tested on: HCT116; assay: Cell viability assay (MTT), HCT116; assay type: cell-based, human; conditions: 1% DMSO
Method in brief: as §1

[4] = tested on: HMEC1; assay: Cell viability assay (MTT), HMEC1; assay type: cell-based, Human; conditions: MTT, 10% FBS, 6-day treatment, 1% DMSO
Method in brief: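 HMEC1 cells seeded 24 h before dosing, then exposed to 0–200 μM compound (11 concentrations) in medium with 10% FBS and 1% DMSO final, refed every 3 days. Viability read on day 6 by MTT (0.5 mg/ml, 1–5 h at 37 °C), absorbance 550 nm; IC50 from dose-response curves, mean±SEM of 1–8 experiments.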

[5] = tested on: NIH 3T3; assay: Cell viability assay (MTT), NIH 3T3; assay type: cell-based, mouse; conditions: Mus musculus, 10% FBS, 1% DMSO
Method in brief: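 MTT viability in medium with 10% FBS and 1% DMSO, with cells seeded 24 h before treatment at 0–200 μM (11 concentrations). There were two formats: 6-day (3–15 10^3 cells, re-fed every 3 days) or 16-hour (5–10 10^4 cells). Absorbance was read at 550 nm, giving IC50 (50% cell death) as mean±SEM.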

[6] = tested on: DLD1; assay: Cell viability assay (MTT), DLD1; assay type: cell-based; conditions: Homo sapiens, DLD-1, 72 h, 10% FBS, 3-day treatment, 1% DMSO
Description: (§2) Table 14: 3-day cell viability assay (MTT) in the presence of 10% Fetal Bovine Serum and 1% DMSO, in DLD1, HCT116, MDA-MB-231, MCF7 and HeLa cells. 7.5 10^3 to 1.5 10^4 cells were seeded in 48-well plates in growth medium containing 10% FBS, with or without various concentrations of test compounds. Data were analyzed and IC50s were calculated from dose-response curves using GraphPad Prism. Results summarized in the tables are mean±SEM of 1 to 7 independent experiments.
(§3) In order to determine a compound's effect on cell viability, microculture tetrazolium assays (MTT) were performed as described by Carmichael et al. (1996) with modifications. Four human tumoral cell lines, namely HCT116 colon adenocarcinoma, H460 lung carcinoma, MCF-7 and MDA-MB-231 breast carcinoma cell lines, DLD1 colorectal adenocarcinoma, HeLa adenocarcinoma, HepG2 hepatocellular carcinoma. 3 immortalized but non tumorigenic cell lines, namely NIH3T3 mouse fibroblasts (American Type Culture Collection) and primary hepatocytes (Biopredic international), cultured according to their recommendations together with Human Microvasculature Endothelial Cell line HMEC1 (National Center for Infectious Diseases). Briefly, cells were seeded in 48-well plates 24 hours before drug addition. Cells were treated with 0 to 200 μM (11 concentrations) of compound solubilized in DMSO, adjusting the final concentration of DMSO to 1% in the well. 16 hours, and three or six days after treatment, 0.5 mg/ml MTT (Sigma) was added to the medium and cells were incubated for 1-5 hours at 37° C. before solubilization of formazan crystals in 100% DMSO. Absorbance was measured using a spectrophotometer at a wavelength of 550 nm. Data was analyzed using the GraphPad Prism software (GraphPad Software, Inc.), and IC50 (dose leading to 50% cell death) was calculated from the dose-response curves.

[7] = tested on: HeLa; assay: Cell viability assay (MTT), HeLa; assay type: cell-based; conditions: Homo sapiens, 72 h, 10% FBS, 3-day treatment, 1% DMSO
Description: as §2, §3

[8] = tested on: MCF7; assay: Cell viability assay (MTT), MCF7; assay type: cell-based; conditions: Homo sapiens, MCF7, 72 h, 10% FBS, 3-day treatment, 1% DMSO
Description: as §2, with “Table 12: 6-day” for “Table 14: 3-day”, “in HMEC1,” for “in DLD1,”, “and NIH3T3 cell lines. 3” for “and HeLa cells. 7.5”, “to 15 10^3” for “to 1.5 10^4”, “compounds. Cell cultures were fed every 3 days with the appropriate media. Cell viability was determined on day 6.” for “compounds.”, “to 8” for “to 7”
as §2, §3

[9] = tested on: Salmonella typhimurium TA 98 and TA 100 strains; assay: Screening Ames test; conditions: with and without S9 mix; 10 to 5000 μg per plate
Description: The objective of this study was to evaluate the potential of the test items to induce reverse mutation in Salmonella Typhimurium (TA 98 and TA 100 strains). The bacterial reverse mutation test is able to identify substances that cause point mutations, by substitution, addition or deletion of one or a few DNA base-pairs. Mutagenic substances can induce reversion in histidine deficient strains which are then able to grow and form colonies in a histidine-limited medium, while non-reverted cannot. This test is performed in the absence and presence of a rat liver metabolising system (S9 mix). Three known mutagens are used to check sensitivity of test system: sodium azide, 2-nitrofluorene and 2-anthramine.
The dose levels per plate were of 10 to 5000 μg. A preliminary toxicity test was performed followed by the mutagenecity test per se.

[10] = tested on: Primary Hepatocytes; assay: Cell viability assay (MTT), primary hepatocytes; assay type: cell-based; conditions: Hepatocyte, 10% FBS, 16-hours treatment, 1% DMSO
Description: (§4) Table 15: 16-hour cell viability assay (MTT) in the presence of 10% Fetal Bovine Serum and 1% DMSO, in HCT116, MDA-MB-231, NIH3T3, HepG2 and primary hepatocytes. 5 10^4 to 10 10^4 cells were seeded in 48-well plates in growth medium containing 10% FBS, with or without various concentrations of test compounds. Data were analyzed and IC50s were calculated from dose-reponse curves using GraphPad Prism. Results summarized in the tables are mean±SEM of 1 to 2 independent experiments.
as §3

[11] = tested on: HepG2; assay: Cell viability assay (MTT), HepG2; assay type: cell-based; conditions: Homo sapiens, 10% FBS, 16-hours treatment, 1% DMSO
Description: as §4, §3

[12] = MDA-MB-231, 144 h, 0.5% FBS, 6-day treatment, read-out: IC50 (μM), MDA-MB-231
[13] = MDA-MB-231, 144 h, 10% FBS, 6-day treatment, read-out: IC50 μM, MDA-MB-231
[14] = Homo sapiens, HCT-116, 144 h, 0.5% FBS, 6-day treatment
[15] = Homo sapiens, HCT-116, 144 h, 10% FBS, 6-day treatment

Row | Structure (SMILES) | IC50 [1] | IC50 [2, 12] | IC50 [2, 13] | IC50 [3, 14] | IC50 [3, 15] | IC50 ([4]; Homo sapiens, HMEC-1, 144 h) | IC50 ([5]; NIH3T3, 144 h, 6-day treatment) | further results
1 | NC(=O)c1nnn(Cc2cc(Cl)c(C(=O)c3ccc(Cl)cc3)c(Cl)c2)c1N [CAI, carboxyamidotriazole, reference compound] | 5.8 ± 1 µM | 0.4 µM | 1.3 µM | 0.6 µM | 1 µM | 28.4 µM | 5.8 µM | mode of action: clone size versus clone number ([1]; soft agar): preferentially affect clone size as compared to clone number; IC50 ([2]; MDA-MB-231, 16 h, 10% FBS, 16-hours treatment, read-out: IC50 μM, MDA-MB-231): > 50 µM; IC50 ([3]; Homo sapiens, HCT-116, 16 h, 10% FBS, 16-hours treatment): 44.1 µM; IC50 ([5]; NIH3T3, 16 h, 16-hours treatment): 95.9 µM
2 | O=c1cc(CN2CCOCC2)occ1OCc1cccc(CSc2ccnc3cc(C(F)(F)F)ccc23)c1 [EHT 2725, 5-((3-((7-(Trifluoromethyl)quinolin-4-ylthio)methyl)phenyl)methoxy)-2-(morpholinomethyl)-4H-pyran-4-one] | – | 6.4 µM | 9.3 µM | 5.4 µM | < 4 µM | 28.1 µM | 24.8 µM | IC50 ([2]; MDA-MB-231, 72 h, 10% FBS, 3-day treatment, read-out: IC50 μM, MDA-MB-231): 19.5 µM; IC50 [6]: 12.2 µM; IC50 [7]: 20.9 µM; IC50 ([3]; 10% FBS, 6-day treatment): 2.7 µM; IC50 ([3]; Homo sapiens, HCT-116, 72 h, 10% FBS, 3-day treatment): 9.9 µM; IC50 [8]: 7.3 µM; mutagenic activity [9]: did not show any mutagenic activity; IC50 [10]: > 50 µM; IC50 [11]: 45.2 µM
3 | O=c1cc(COC2CCCCO2)occ1OCCCCCSc1ccnc2cc(C(F)(F)F)ccc12 (stereo not shown) [EHT 9376, 2-(Tetrahydro-pyran-2-yloxymethyl)-5-[5-(7-trifluoromethyl-quinolin-4-ylsulfanyl)-pentyloxy]-4H-pyran-4-one] | 5.4 ± 1.2 µM | – | 11.5 µM | – | – | < 10 µM | 8.1 µM | IC50 [4]: 8.2 µM

From US7514432B2, “Compounds and methods of treating cell proliferative diseases, retinopathies and arthritis” (Exonhit Therapeutics SA, priority 2003, dated 2009)
